Read-outs that look alike come from different tables or passages of the source.
Legend:
[1] = test system: panel of 40 receptors and enzymes; test: Panel of 40 receptors and enzymes (MDS Panlabs Pharmacology Services)
[2] = test system: mesenteric artery bleeding time; test: Mesenteric artery bleeding time (MABT) model; format: in vivo; details: rat, i.v. 12+12 and 24+24 mg/kg+mg/kg/hr, pre- vs post-treatment, FIG. 6
Description: Experimental Bleeding Time Two models of bleeding time were performed, namely, a renal cortex bleeding model (using template incision of the renal cortex), and a mesenteric artery bleeding model (using severance of small mesenteric arteries).
In the mesenteric artery bleeding time (MABT) model, the abdomen was opened via a midline incision and the small intestine was exteriorized. The jejunum was exposed, held in place with clamps and superfused with Ringer's solution maintained at 37° C. Small arteries that branch perpendicular to the mesenteric artery and course over the surface of the jejunum were observed through an SZH10 stereomicroscope (Olympus Corp., Lake Success, N.Y.). These vessels were punctured with a 30-gauge hypodermic needle and the time in sec from puncturing until bleeding stopped was recorded. Bleeding times were determined in 3-5 arteries before administration of test article and in 3-5 arteries 20 min after the start of test article infusion. […]
Statistical Analysis In the venous and arterial thrombosis procedures, treatment effects on thrombus weight, baseline blood flow, and average blood flow during thrombosis were determined by analysis of variance with Dunnett's test for comparison to the vehicle group. […] Treatment effects on bleeding times were determined by analysis of variance with Dunnett's test for comparison to the vehicle group. […]

human α-thrombin = molecular target: T1, human α-thrombin (Homo sapiens, UniProt P00734); test: Selectivity assay thrombin; format: biochemical; details: Table 3
T1 construct: Enzymatic activity of human α-thrombin (Sigma) was measured; purchased Sigma

Human FXIa = molecular target: T2, Human FXIa (Homo sapiens, UniProt P03951); test: FXIa enzymatic activity (chromogenic S-2366; fluorescent assay for high potency); format: biochemical
T2 construct: purchased Enzyme Research Labs or Haematologic Technologies Inc
Description: Human FXIa activity (Enzyme Research Labs or Haematologic Technologies Inc.) was measured at room temperature in 96 well microtiter plates. The enzyme was incubated with drug for 3 minutes at an enzyme concentration of 0.5 nM in 145 mM NaCl, 5 mM KCl, 1 mg/mL PEG 8000,30 mM HEPES (pH 7.4). After the three minute incubation, 100 μM substrate, S-2366, (L-Pyroglut-Pro-Arg-pNA, Diapharma Group, Inc.) was added and the enzyme velocity was measured using a Molecular Devices Spectro Max Plus (405 nm wavelength) in kinetic mode and analyzed using SOFTmax Pro (ver 3.0) software. For routine compound evaluation, the fraction of control activity (FCA) was plotted as a function of the inhibitor concentration (I), and the curve was fit to the equation FCA /(1+[I]/IC50) to determine the IC50.
A fluorescent assay was performed under similar conditions to evaluate FXIa activity of compounds with high potency (IC50<10 nM). A different substrate (D-Ile-Pro-Arg-AFC.2TFA) and a different concentration of enzyme (0.043 nM) was used. The enzyme velocity was measured using a Molecular Devices fMax fluorescent plate reader (400 nm excitation, 505 nm emission).

[3] = test system: rat plasma (ex vivo APTT); test: Ex vivo clotting time APTT; format: in vivo; details: for APTT Increase (X Control): average over 15-90 min
Description: Ex Vivo Clotting Times Ex vivo clotting time assays were used to determine the level of anticoagulation achieved in the thrombosis and bleeding time procedures, described above. A small organic compound for inhibiting Factor XIa was administered at doses (mg/kg+mg/kg/hr) of 0.5+0.5 (n=3), 2+2 (n=4), 6+6 (n=3), 12+12 (n=3) and 24+24 (n=10). Carotid artery blood (0.6 mL drawn into 1/10 volume of 3.8% Na-citrate) was sampled before (0 min control) and at 5, 15, 30, 60 and 90 min after the start of the compound infusion. The APTT was determined in freshly prepared plasma from each sample using the standard procedure for Dade Actin FSL reagent (Baxter Healthcare Corp., Miami, Fla.). The PT was determined in some animals from the 6+6 (n=3), 12+12 (n=3) and 24+24 (n=2) dose groups using Dade Thromboplastin●C reagent.
Plasma was sampled before (0 min control) and after the infusion, at intervals of 5, 15, 30, 60 and 90 min after initiating the infusion. Average APTT increases over the 15-90 min period, an interval most applicable to thrombosis and bleeding time protocols, were calculated. Control APTT values averaged 19.9±1.3 seconds overall. The PT was unaltered as expected from in vitro results. […] The range of efficacious doses in venous and arterial thrombosis (2+2, 6+6, 12+12; mg/kg+mg/kg/hr) produced an APTT increase of about 2.8 times control.

T2 sequence (P03951 388-625 limits assumed): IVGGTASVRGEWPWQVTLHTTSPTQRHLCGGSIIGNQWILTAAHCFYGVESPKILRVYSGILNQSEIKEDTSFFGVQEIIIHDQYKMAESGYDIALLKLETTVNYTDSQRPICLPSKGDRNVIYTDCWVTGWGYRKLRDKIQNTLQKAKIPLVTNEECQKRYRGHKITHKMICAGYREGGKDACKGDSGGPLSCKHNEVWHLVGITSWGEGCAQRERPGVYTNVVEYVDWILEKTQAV
T2 sequence (P03951 19-387 partner limits assumed): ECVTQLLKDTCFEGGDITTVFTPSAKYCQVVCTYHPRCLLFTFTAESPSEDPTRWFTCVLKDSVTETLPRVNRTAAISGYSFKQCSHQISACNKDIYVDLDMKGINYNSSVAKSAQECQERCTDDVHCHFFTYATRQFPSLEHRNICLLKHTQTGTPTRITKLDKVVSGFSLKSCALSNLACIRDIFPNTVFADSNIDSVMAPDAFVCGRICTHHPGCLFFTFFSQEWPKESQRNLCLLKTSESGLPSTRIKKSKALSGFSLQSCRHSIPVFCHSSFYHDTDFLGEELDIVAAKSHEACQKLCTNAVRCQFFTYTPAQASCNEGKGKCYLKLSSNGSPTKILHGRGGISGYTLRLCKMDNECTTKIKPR

Q: Which “inhibition or enhancement of receptor and enzyme activities” value [1] does the source give for `CC(C)(C)NC(=O)N1CCN(C(=O)N2C(=O)[C@H](CCCNC(=N)N)[C@H]2C(=O)O)CC1` [Example 4] here?
A: The value was “No significant inhibition or enhancement”.

Q: And the “effect on mesenteric artery bleeding times” value [2]?
A: Its value is “no effect”.

Q: And the IC50 (human α-thrombin)?
A: The IC50 was 10.5 µM.

Q: And the IC50 (Human FXIa; Table 1, Factor XIa, approximate, read-out: IC50(≅))?
A: Its IC50 is ~0.0028 µM.

Q: And the IC50 (Human FXIa; Table 3, read-out: IC50 (μM) FXIa)?
A: The IC50 was 0.0028 µM.

Q: And the “times more active than the FXa inhibitor for inhibiting Factor XIa” value (Human FXIa; from Table 3 IC50 values)?
A: The value was “more than 10,000 times”.

Q: What about the “times more active than the thrombin inhibitor (compound 16A) for inhibiting Factor XIa” value (Human FXIa; from Table 3 IC50 values) of the same compound?
A: The value was “greater than 2,000 times”.

Q: And the “APTT Increase (X Control)” value ([3]; dose 0.5 + 0.5 mg/kg + mg/kg/hr)?
A: The value was 1.57 ± 0.22 X Control.

Q: And the “APTT Increase (X Control)” value ([3]; dose 2 + 2 mg/kg + mg/kg/hr)?
A: The value was 2.81 ± 0.21 X Control.

Q: What about the “APTT Increase (X Control)” value ([3]; dose 6 + 6 mg/kg + mg/kg/hr) of the same compound?
A: Its value is 2.73 ± 0.19 X Control.

Q: And the “APTT Increase (X Control)” value ([3]; dose 12 + 12 mg/kg + mg/kg/hr)?
A: The value was 2.79 ± 0.26 X Control.

Q: What about the “APTT Increase (X Control)” value ([3]; dose 24 + 24 mg/kg + mg/kg/hr) of the same compound?
A: The value was 3.29 ± 0.85 X Control.

Q: And the APTT increase ([3]; range of efficacious doses 2+2, 6+6, 12+12 mg/kg+mg/kg/hr)?
A: Its APTT increase is “about 2.8 times control”.

Reference: patent US20040180855A1, “Methods of treating thrombosis with reduced risk of increased bleeding times” (priority 2003, published 2004)
